Earlier results in PMC12120261, “Responsiveness of different MET tumour alterations to type I and type II MET inhibitors” (Clinical and Translational Medicine, 2025).

System: MET G1163R
Design: method as in PMID 31279006

SMILES	sensitivity of the solvent front G1163R mutation
CNC(=O)c1ccc(-c2cnc3ncc(Cc4ccc5ncccc5c4)n3n2)cc1F [capmatinib]	remains sensitive
C[C@@H](Oc1cc(-c2cnn(C3CCNCC3)c2)cnc1N)c1c(Cl)ccc(F)c1Cl [crizotinib, Crizotinib]	conferring resistance
C[C@@H](c1ccc2nccn2c1)n1nnc2ncc(-c3cnn(C)c3)nc21 [savolitinib]	remains sensitive
